From patent EP0102327A2, “Barbituric acid derivatives as anthelmintica” (CIBA-GEIGY AG, priority 1982, dated 1984)

Experiments:
[1] = tested on: Nematoden wie Haemonchus concortus und Trichostrongylus colubriformis; experiment: Test on sheep infected with nematodes (worm count in the intestine after treatment); type: in vivo, Schafe; details: nematode-infected sheep, single dose; at each of the doses 20, 10, 5 and 2 mg/kg; necropsy 7-10 days after treatment
Description: Beispiel 14: Versuch an mit Nematoden wie Haemonchus concortus und Trichostrongylus colubriformis infizierten Schafen
Der Wirkstoff wird in Form einer Suspension mit einer Magensonde oder durch Pansen-Injektion Schafen verabreicht, die vorher mit Nematoden wie Haemonchus concortus und Trichostrongylus colubriformis künstlich infiziert wurden. Pro Versuch resp. pro Dosis werden 1 bis 3 Tiere verwendet. Jedes Schaf wird mit nur einer einzigen Dosis behandelt.
(§1) Eine erste Evaluierung erfolgt dadurch, dass die Anzahl der vor und nach der Behandlung im Kot der Schafe ausgeschiedenen Wurmeier verglichen werden.
Sieben bis zehn Tage nach der Behandlung werden die Schafe getötet und seziert. Die Auswertung erfolgt durch Auszählung der nach der Behandlung im Darm zurückbleibenden Würmer. Gleichzeitig und gleichartig infizierte aber unbehandelte Schafe dienen als Kontrolle resp. Vergleich.
Schafe, die mit einer Suspension eines Wirkstoffes aus der Tabelle I behandelt werden, zeigen im Vergleich zu unbehandelten, aber infizierten Vergleichsgruppen einen um mindestens 95 i reduzierten Nematodenbefall. Die Wirkungsdosis beträgt 20, 10, 5 und 2 mg/kg. Mit den Verbindungen Nr. 1, 2, 4, 11, 12 und 13 wird bei jeder der Dosen 100 % Wirkung erzielt.

[2] = tested on: Fasciola hepatica; experiment: Test on sheep infected with Fasciola hepatica (count of liver flukes in the bile ducts after treatment); type: in vivo, Schafe; details: artificially infected sheep, single dose of suspension by stomach tube or rumen injection; 30 and 20 mg/kg Körpergewicht; necropsy 3-4 weeks after treatment
Description: Beispiel 16: Versuch an mit Fasciola hepatica infizierten Schafen
Der Wirkstoff wird in Form einer Suspension mit einer Magensonde oder durch Pansen-Injektion Schafen verabreicht, die vorher mit Fasciola hepatica künstlich infiziert wurden. Pro Versuch resp. pro Dosis werden 3 Tiere verwendet. Jedes Tier wird mit nur einer einzigen Dosis behandelt.
as §1
Drei bis vier Wochen nach der Behandlung werden die Schafe getötet und seziert. Die Auswertung erfolgt durch das Auszählen der nach der Behandlung in den Gallengängen zurückgebliebenen Leberegel. Gleichzeitig und gleichartig infizierte aber unbehandelte Schafe dienen als Kontrolle resp. Vergleich. Der Unterschied der in den beiden Gruppen festgestellten Anzahl von Leberegeln ergibt den Wirkungsgrad des geprüften Wirkstoffs.
In diesem Versuch zeigen Wirkstoffe aus der Tabelle I bei Dosen von 30 und 20 mg/kg Körpergewicht stets eine mindestens 95%ige Wirksamkeit gegen Fasciola hepatica. Die Verbindungen Nr. 1, 2, 4, 5, 11, 12 und 13 zeigen jeweils vollständige Wirksamkeit (^= Abtötung 100 %).

SMILES	Wirkung [1]	Wirksamkeit gegen Fasciola hepatica (Abtötung) [2]
CC(C)c1cc(Oc2ccc(C(F)(F)F)cc2)ccc1NC(=O)C1C(=O)N(C)C(=O)N(C)C1=O [compound 1]	100%	100%
Cc1cc(Oc2ccc(C(F)(F)F)cc2)cc(C)c1NC(=O)C1C(=O)N(C)C(=O)N(C)C1=O [compound 2]	100%	100%
Cc1cc(Oc2ccc(C(F)(F)F)cc2)ccc1NC(=O)C1C(=O)N(C)C(=O)N(C)C1=O [compound 4]	100%	100%
C=CCN1C(=O)C(C(=O)Nc2ccc(Oc3ccc(C(F)(F)F)cc3)cc2C)C(=O)N(C)C1=O (stereo not shown) [compound 5]		100%
Cc1cc(Oc2ccc(C(F)(F)F)cc2)cc(C)c1NC(=O)C1C(=O)N(C)C(=O)N(C2CC2)C1=O (stereo not shown) [compound 11]	100%	100%
C=CCN1C(=O)C(C(=O)Nc2c(C)cc(Oc3ccc(C(F)(F)F)cc3)cc2C)C(=O)N(C)C1=O (stereo not shown) [compound 12]	100%	100%
CC(C)c1cc(Oc2ccc(C(F)(F)F)cc2)ccc1NC(=O)C1C(=O)N(C)C(=O)N(C2CC2)C1=O (stereo not shown) [compound 13]	100%	100%
